One data set concerns the target T1, human Y2 receptor (Homo sapiens, UniProt P49146).
T1 sequence (P49146 1-381): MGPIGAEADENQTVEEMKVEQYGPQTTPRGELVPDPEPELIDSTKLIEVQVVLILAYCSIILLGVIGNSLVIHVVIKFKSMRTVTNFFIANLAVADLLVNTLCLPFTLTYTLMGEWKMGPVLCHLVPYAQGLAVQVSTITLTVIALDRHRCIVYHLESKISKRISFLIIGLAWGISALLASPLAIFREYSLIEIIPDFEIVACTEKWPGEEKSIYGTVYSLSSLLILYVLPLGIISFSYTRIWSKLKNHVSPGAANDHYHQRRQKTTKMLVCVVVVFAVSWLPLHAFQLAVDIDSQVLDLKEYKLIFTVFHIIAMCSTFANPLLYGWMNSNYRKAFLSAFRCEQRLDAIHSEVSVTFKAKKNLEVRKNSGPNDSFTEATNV
Kind of data set: NPY receptor functional assay (cAMP, HEK-CNG cells, ACTOne membrane potential dye). Type of data set: cell-based. The settings on record: NPY2R pEC50, HEK-CNG cells; standard PYY(3-36); species (human or rat) not given. The method, boiled down: (§1)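 HEK-CNG cells stably expressing each human receptor; peptides added in triplicate for 50 minutes at room temperature, with agonism read as decreased isoproterenol-induced membrane potential dye signal (final/initial read).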

The target in the next data set is T2, human Y5 receptor (Homo sapiens, UniProt Q15761).
T2 sequence (Q15761 1-445): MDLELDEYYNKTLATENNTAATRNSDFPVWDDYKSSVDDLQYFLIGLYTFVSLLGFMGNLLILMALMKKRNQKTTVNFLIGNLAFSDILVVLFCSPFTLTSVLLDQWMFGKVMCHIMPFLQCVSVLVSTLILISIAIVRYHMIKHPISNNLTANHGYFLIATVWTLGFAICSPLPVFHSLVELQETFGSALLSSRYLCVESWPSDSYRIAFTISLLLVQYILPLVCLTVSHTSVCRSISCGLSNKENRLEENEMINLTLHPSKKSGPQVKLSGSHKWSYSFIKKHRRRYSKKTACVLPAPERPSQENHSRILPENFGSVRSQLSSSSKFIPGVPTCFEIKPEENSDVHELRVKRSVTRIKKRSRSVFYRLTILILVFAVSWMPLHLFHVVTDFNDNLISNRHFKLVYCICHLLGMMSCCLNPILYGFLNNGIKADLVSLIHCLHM
Described as above. In kind it is cell-based. The settings on record: NPY5R pEC50, HEK-CNG cells; standard NPY; species (human or rat) not given. The method, boiled down:
as §1

Data set [1] is described as follows: In vitro metabolic stability in kidney brush border membranes (kBBM). The following applies: 1 mcM peptide, 37° C. In kind it is in vitro ADME. How it is done:
In vitro incubations in kidney brush border membrane (kBBM) preparations were used to characterize the ability of peptides to resist degradation by proteases and peptidases in the systemic circulation. kBBM were selected because they contain a high concentration of a diverse set of proteases and peptidases, many of which are present throughout the body.
Brush border membranes from rat and human kidney tissue were prepared via centrifugation and stored at −70° C. Thawed stocks of rat or human kBBM were diluted to the appropriate concentration in 25 mM HEPES buffer (pH 7.4) containing 1% casein and aliquoted into a 96-well plate. The kBBM solutions were pre-warmed for 10 minutes at 37° C. […] The final concentration of kBBM in each incubation was 50 mcg protein/mL. Reactions were maintained at 37° C. in a shaking water bath. […] Quenched samples were centrifuged at 2178×g for 10 min and then a portion of the supernatants were transferred to a clean 96-well plate and diluted 1:1 with water. Samples were analyzed by UPLC-MS/MS.

The nature of data set [2]: In vitro stability in subcutaneous (SC) tissue homogenates. Type of data set: in vitro ADME. The settings on record: subcutaneous tissue homogenate, pH 7.4; human SC tissue homogenate 1.0 mg protein/mL, 10 mcM peptide, 37° C.; read-out: (H)SC tissue stability t½ (converted). How it is done: In vitro incubations in subcutaneous (SC) tissue homogenates were used to characterize the ability of peptides to resist pre-systemic degradation by proteases and peptidases after SC administration. […] Peptides with high SC bioavailability are stable in this assay, while peptides with low SC bioavailability are unstable in this assay.
Human SC tissue was homogenized in cold 25 mM HEPES buffer (pH 7.4, 10-fold volume based on sample weight), and then filtered through a double layer of cheesecloth. The filtrates were aliquoted, flash frozen on a methanol/dry ice bath and stored at −80° C. The protein concentration of each pooled batch was determined using the BCA protein assay. Thawed stocks of human SC tissue homogenates were diluted to 1.0 mg protein/mL in 25 mM HEPES buffer (pH 7.4) and aliquoted into a 96-well plate. The diluted SC homogenates were pre-warmed for 10 minutes at 37° C. […] Reactions were maintained at 37° C. in a shaking water bath. […] Quenched samples were centrifuged at 2178×g for 10 min and then a portion of the supernatants were transferred to a clean 96-well plate and diluted 1:10 with water. Samples were analyzed by UPLC-MS/MS.

[3] abbreviates: pH 7.4, human kBBM 50 mcg protein/mL, read-out: hkBBM t½ (converted).

Each structure is given as a SMILES string. Where two headings read alike, the source gives them in different places. Starred links: 1 amine or outer side, 2 acyl side, 3 side chain; linkers in the order of their positions; H or OH if unused. Residues, ends and D or L forms follow the SMILES beside them. Groups on a side chain read outwards from the residue. *: point of attachment. C20 diacid = O=C(O)CCCCCCCCCCCCCCCCCCC(=O)*; γGlu = O=C(O)[C@H](CCC(=O)[*:2])N[*:1] Where only a bound is given, the exact number is not on record here.

What is called EC50 is the midpoint of the concentration-response curve. On to `CC(C)C[C@H](NC(=O)[C@H](CC(=O)O)NC(=O)[C@H](CCCCNC(=O)CC[C@H](NC(=O)CC[C@H](NC(=O)CCCCCCCCCCCCCCCCCCC(=O)O)C(=O)O)C(=O)O)NC(=O)[C@H](Cc1ccc(O)cc1)NC(=O)[C@H](Cc1ccc(O)cc1)NC(=O)[C@H](CCCNC(=N)N)NC(=O)[C@H](CC(N)=O)NC(=O)[C@H](Cc1c[nH]c2ccccc12)NC(=O)[C@H](CCC(=O)O)NC(=O)[C@H](CCCCN)NC(=O)[C@@H]1CCCN1C(=O)[C@H](CO)NC(=O)[C@H](C)NC(=O)[C@H](CC(=O)O)NC(=O)[C@H](CCCCN)NC(=O)CNC(=O)[C@@H]1CCCN1C(=O)[C@H](CCCCN)NC(=O)[C@H](CCC(=O)O)NC(=O)[C@@H]1CCCN1C(=O)[C@H](CCCCN)NC(=O)[C@@H]1CCCN1)C(=O)N[C@@H](CCCNC(=N)N)C(=O)N[C@@H](Cc1c[nH]cn1)C(=O)N[C@@H](Cc1ccc(O)cc1)C(=O)N[C@@H](CC(C)C)C(=O)N[C@@H](CC(N)=O)C(=O)N[C@@H](Cc1c[nH]c2ccccc12)C(=O)N[C@@H](CC(C)C)C(=O)N[C@H](C(=O)N[C@@H](CCCNC(=N)N)C(=O)N[C@@H](CCC(N)=O)C(=O)N[C@@H](CCCNC(=N)N)C(=O)N[C@@H](Cc1ccccc1)C(N)=O)[C@@H](C)O` [Compound A28] (H-PKPEKPGKDASPKEWNRYYK([γGlu-γGlu-C20 diacid])DLRHYLNWLTRQRF-NH2; N-terminus assumed), for which the EC50 at human Y2 receptor is 0.0316 nM; on human Y5 receptor, 1.58 nM. In data set [1] (setting [3]), the half-life at 1 mcM was 5.2 h. In addition, the half-life at 10 mcM in data set [2] is 0.2 h.

Regarding `CC(C)C[C@H](NC(=O)[C@H](CC(=O)O)NC(=O)[C@H](CCCCN)NC(=O)[C@H](Cc1ccc(O)cc1)NC(=O)[C@H](Cc1ccc(O)cc1)NC(=O)[C@H](CCCNC(=N)N)NC(=O)[C@H](CC(=O)O)NC(=O)[C@H](Cc1c[nH]c2ccccc12)NC(=O)[C@H](CCC(=O)O)NC(=O)[C@H](CCCCN)NC(=O)[C@@H]1CCCN1C(=O)[C@H](CO)NC(=O)[C@H](C)NC(=O)[C@H](CC(=O)O)NC(=O)[C@H](CCC(=O)O)NC(=O)CNC(=O)[C@@H]1CCCN1C(=O)[C@H](CCCCNC(=O)CC[C@H](NC(=O)CC[C@H](NC(=O)CCCCCCCCCCCCCCCCC(=O)O)C(=O)O)C(=O)O)NC(=O)[C@H](CCC(=O)O)NC(=O)[C@@H]1CCCN1C(=O)[C@H](CCCCN)NC(=O)[C@@H]1CCCN1)C(=O)N[C@@H](CCCNC(=N)N)C(=O)N[C@@H](Cc1c[nH]cn1)C(=O)N[C@@H](Cc1ccc(O)cc1)C(=O)N[C@@H](CC(C)C)C(=O)N[C@@H](CC(N)=O)C(=O)N[C@@H](Cc1c[nH]c2ccccc12)C(=O)N[C@@H](CC(C)C)C(=O)N[C@H](C(=O)N[C@@H](CCCNC(=N)N)C(=O)N[C@@H](CCC(N)=O)C(=O)N[C@@H](CCCNC(=N)N)C(=O)N[C@@H](Cc1ccccc1)C(N)=O)[C@@H](C)O` [Compound A35], the half-maximal effective concentration (EC50) at human Y2 receptor is 0.0316 nM; at human Y5 receptor it was 0.794 nM. In addition, the half-life at 1 mcM in data set [1] (setting [3]) was 5.6 h. The half-life at 10 mcM in data set [2] was 1.3 h.

Consider `CC(C)C[C@H](NC(=O)[C@H](CC(=O)O)NC(=O)[C@H](CCCCNC(=O)CC[C@H](NC(=O)COCCOCCNC(=O)COCCOCCNC(=O)CC[C@H](NC(=O)CCCCCCCCCCCCCCCCCCC(=O)O)C(=O)O)C(=O)O)NC(=O)[C@H](Cc1ccc(O)cc1)NC(=O)[C@H](Cc1ccc(O)cc1)NC(=O)[C@H](CCCNC(=N)N)NC(=O)[C@H](CC(N)=O)NC(=O)[C@H](Cc1c[nH]c2ccccc12)NC(=O)[C@H](CCC(=O)O)NC(=O)[C@H](CCC(=O)O)NC(=O)[C@@H]1CCCN1C(=O)[C@H](CO)NC(=O)[C@H](C)NC(=O)[C@H](CC(=O)O)NC(=O)[C@H](CCCCN)NC(=O)CNC(=O)[C@@H]1CCCN1C(=O)[C@H](C)NC(=O)[C@H](CCC(=O)O)NC(=O)[C@@H]1CCCN1C(=O)[C@H](CCCCN)NC(=O)[C@@H]1CCCN1)C(=O)N[C@@H](CCCNC(=N)N)C(=O)N[C@@H](Cc1c[nH]cn1)C(=O)N[C@@H](Cc1ccc(O)cc1)C(=O)N[C@@H](CC(C)C)C(=O)N[C@@H](CC(N)=O)C(=O)N[C@@H](Cc1c[nH]c2ccccc12)C(=O)N[C@@H](CC(C)C)C(=O)N[C@H](C(=O)N[C@@H](CCCNC(=N)N)C(=O)N[C@@H](CCC(N)=O)C(=O)N[C@@H](CCCNC(=N)N)C(=O)N[C@@H](Cc1ccccc1)C(N)=O)[C@@H](C)O` [Compound A16], for which the EC50 is 0.0631 nM at human Y2 receptor and 0.794 nM at human Y5 receptor. Also, the half-life at 1 mcM was > 12 h in data set [1] (setting [3]) and > 12 h in data set [1] (pH 7.4, rat kBBM 50 mcg protein/mL, read-out: rkBBM t½). Besides, the half-life at 10 mcM in data set [2] was 7.3 h.

The values above are taken from patent US12122816B2, “Long acting peptide tyrosine tyrosine (PYY) analogs and methods of use” (Intarcia Therapeutics, Inc., priority 2020, dated 2024).
